# Data taken from patent US20250144047A1, “PHARMACEUTICAL COMPOSITION FOR PREVENTING, AMELIORATING, OR TREATING CANCER CONTAINING 8-PARADOL” (KDBIO CORP., priority 2022, published 2025).
# What was measured:
# HEK293 cells = format: cell-based, human
# Protocol: (§2) AGS cells were grown in RPMI medium containing 10% FBS and 1% PS. HEK293 and RAW264.7 cells were grown in DMEM medium containing 10% FBS and 1% PS under conditions of 37° C., 5% CO2 and 95% air.
# (§3) In order to evaluate toxicity to each cell, the sample was incubated in each cell (1×10^5 cells/well) cultured in the above manner for 24 hours, and then cytotoxicity to each cell was examined by using the MTT assay.
# AGS cells [1] = experiment: Live/dead cell staining of AGS cells; format: cell-based, human; conditions: 24 hours
# Protocol: (§1) Live/dead cells were stained using a live/dead cell staining kit (Thermo Fisher Scientific, Rockford, IL, USA). Specifically, apoptosis was induced by processing AGS cells (2×10^5 cells/well) as a sample for 24 hours. After staining the cells for 30 minutes using the staining kit, the cells were observed using a Leica DM IRB fluorescence microscope (Wetzlar, Germany). In addition, for the colony formation assay, AGS cells were cultured at a density of 500 cells/well and then processed with the sample. Then, the cells were stained with 0.5% crystal violet (Sigma-Aldrich, St. Louis, MO, USA) for 15 minutes […], and then the stained colonies were observed and quantified using ImageJ.
# AGS cells [2] = experiment: Colony formation assay of AGS cells; format: cell-based, human; conditions: 5-FU positive control
# Protocol: as §1
# AGS cells [3] = experiment: Hoechst33258 and PI staining; format: cell-based, human
# Protocol: AGS cells (1×10^5 cells) were seeded and maintained for 24 hours. In order to evaluate the percentage of apoptotic cells, Hoechst33258 or PI (Thermo Fisher Scientific, Rockford, IL, USA) was added to the AGS cells processed with the sample. After 30 minutes, the cells were observed using the fluorescence microscope (Leica DM IRB).
# [4] = tested on: AGS xenograft tumor tissue; experiment: Western blot of tumor tissue of xenograft mice; format: in vivo
# Protocol: For whole protein extraction, AGS cells were processed with samples at various concentrations for 24 hours. The cells were dissolved using Pierce™ RIPA buffer (Thermo Fisher Scientific, Rockford, IL, USA) together with protease inhibitor cocktail (GenDEPOT, TX, USA). The cell-dissolved solution formed in the above manner was centrifuged at 12,000 rpm for 20 minutes. The protein was loaded into a 10% SDS-PAGE gel using a protein gel electrophoresis chamber system and transferred to a PVDF membrane (Thermo Fisher Scientific, Rockford, IL, USA). A PBST solution containing 5% skim milk was used to block the membrane at 25° C. for 1 hour. Then, the membrane was incubated overnight at 4° C. with primary antibodies. Finally, the membrane was incubated with the secondary antibodies at 25° C. for 1 hour, and a protein band was detected using West-Q Pico ECL Solution (GenDEPOT, TX, USA). The results were quantified using ImageJ software.
# Each mouse was orally administered with 8-paradol and 5-FU once a day for a total of 16 days. The control group was administered with only 0.9% of general saline during this period. Body weights and tumor volumes of the mice were measured daily in all mice during the study period. All mice were euthanized after the end of the experiments. Blood, liver, spleen, kidney, and tumor tissues were extracted and weighed. In order to obtain the protein of tumor tissue, a portion of the tissue was processed with RIPA buffer containing a protease inhibitor cocktail. Then, the expression degree of a specific protein (determined by Western blot) was determined.
# AGS cells [5] = tested on: AGS cells
# Protocol: as §2, §3
structure (smiles),measurement,setting,value
"CCCCCCCCCC(=O)CCc1ccc(O)c(OC)c1 [Purified Compound 3, 8-paradol]",cytotoxicity to normal cells HEK293,HEK293 cells,did not express significant cytotoxicity
same,cytotoxicity on AGS cells by cell morphology and live/dead cell staining,AGS cells [1],strong cytotoxicity
same,colony formation ability compared with 5-FU-processed AGS cells,AGS cells [2],significantly inhibited
same,number of apoptotic cells (Hoechst and PI staining),"AGS cells [3]; 8-paradol and CQ together, compared to 8-paradol solely",significantly reduced
same,fragmentation of nuclei and fluorescence of the condensate (Hoechst staining),AGS cells [3]; AGS cells,became stronger in a dose-dependent manner
same,number of killed cells (PI staining),"AGS cells [3]; AGS cells, compared with control group",increased the number of killed cells
same,expression degrees of p62 and Bcl-2 proteins,[4]; tumor tissue,significantly decreased
same,"mitophagy-related proteins LC3, Pink1 and Parkin in tumor tissue",[4]; tumor tissue of processed mice,significantly increased in a dose-dependent manner
same,"apoptosis-related proteins Bax, Cytochrome-c, Cleaved-caspase-3/caspase-3 and Cleaved-caspase-9/caspase-9","[4]; tumor tissue, compared to control group",significantly increased
same,cytotoxicity to AGS cells,AGS cells [5],killed in a concentration-dependent manner
same,cell viability,"AGS cells [5]; 8-paradol and CQ in combination, compared to 8-paradol solely",significantly improved
same,IC50,"AGS cells [5]; read-out: IC50 on AGS cells, AGS cells, 24 hours, MTT assay",14.9 ± 1.65 µM
